Measured values from US20230108049A1, “ORAL FAST-DISPERSING DOSAGE FORM OF RIMEGEPANT” (BIOHAVEN PHARMACEUTICAL HOLDING COMPANY LTD., priority 2020, published 2023).

What was measured:
[1] = Excretion after oral [14C]-rimegepant; assay type: in vivo, human; conditions: oral, healthy male subjects
From the text: Following oral administration of [^14C]-rimegepant to healthy male subjects, 78% of the total radioactivity was recovered in feces and 24% in urine. Unchanged rimegepant is the major single component in excreted feces (42%) and urine (51%).

Solubility in water = assay type: physicochemical; conditions: white to off-white crystalline solid

SMILES	total radioactivity recovered in feces [1] [%]	total radioactivity recovered in urine [1] [%]	solubility in water (Solubility in water)
N[C@@H]1c2cccnc2[C@H](OC(=O)N2CCC(n3c(=O)[nH]c4ncccc43)CC2)CC[C@H]1c1cccc(F)c1F [[^14C]-rimegepant]	78	24	–
N[C@@H]1c2cccnc2[C@H](OC(=O)N2CCC(n3c(=O)[nH]c4ncccc43)CC2)CC[C@H]1c1cccc(F)c1F [rimegepant hemisulfate, (5S,6S,9R)-5-amino-6-(2,3-difluorophenyl)-6,7,8,9-tetrahydro-5H-cyclohepta[b]pyridin-9-yl 4-(2-oxo-2,3-dihydro-1H-imidazo[4,5-b]pyridin-1-yl)-1-piperidinecarboxylate hemisulfate sesquihydrate]	–	–	slightly soluble in water
